# Measurements published in PMC12260505, “First-in-Human Phase I/IIa Study of the First-in-Class CDK2/4/6 Inhibitor PF-06873600 Alone or with Endocrine Therapy in Patients with Breast Cancer” (Clinical Cancer Research, 2025).
# Experiments:
# ctDNA = ctDNA molecular response (Guardant360, meanVAF change); assay type: in vivo, human; conditions: plus fulvestrant; for Median ctDNA molecular response: combined parts 2A and 2C; for Median change in ctDNA meanVAF: cycle 1 day 15 from cycle 1 day 1
# Description: Plasma samples were collected at cycle 1 day 1, cycle 1 day 15, and the end of treatment (EOT). Genomic alterations in ctDNA were detected using the next-generation sequencing–based 74-gene Guardant360 platform (Guardant Health). ctDNA molecular response between the two samples was determined as described by Mack and colleagues ([9]). Briefly, after subtracting germline variants and potential clonal hematopoiesis of indeterminate potential, the mean variant allele frequency (meanVAF) of somatic variants (including single-nucleotide variants, insertions and deletions, and fusions) with a mutant molecular count above a proprietary threshold was calculated for each sample by averaging the VAFs of all variants detected among the two samples. The relative change of meanVAF of the posttreatment sample from the baseline sample was then calculated as the ctDNA molecular response. Samples lacking somatic variants with sufficient mutant molecular counts or the absence of any somatic alterations at both time points were considered ctDNA low and not evaluable for molecular response.
# Ki67 = assay: IHC of Ki67 in paired tumor biopsies; assay type: in vivo, human
# Description: (§1) The pharmacodynamic effects of PF-06873600 were assessed by IHC staining of pRb and Ki67 in tumor biopsy samples collected at screening and day 1 of cycle 2 (4 hours after dose). Immunostaining was performed on […] formalin-fixed, paraffin-embedded tissue sections using rabbit monoclonal anti-Rb (Ser807/811) antibody (clone D20B12, Cell Signaling Technology) and rabbit monoclonal anti-Ki67 antibody (Ventana Medical Systems), respectively. pRb and Ki67 expressions were assessed semiquantitatively by a board-certified pathologist. Scoring was performed using the percentage of cells positive for Ki67 or a histo-score (H-score) methodology for pRb based on staining intensity and the percentage of positive cells. Intensity was scored as 0, none; 1, weak; 2, moderate; or 3, strong, and H-scores were calculated as follows: H-score = [fraction of cells with intensity grade 1 (%)] + [fraction of cells with intensity grade 2 (%) × 2] + [fraction of cells with intensity grade 3 (%) × 3].
# [1] = system: HR+/HER2− metastatic breast cancer; assay: Antitumor activity by RECIST version 1.1; assay type: in vivo, human; conditions: for Objective response (CR + PR; pts with HR+/HER2− breast cancer with measurable disease at baseline and prior CDK4/6i): 40 such pts
# Description: Antitumor activity was assessed through radiological tumor assessments conducted at baseline, during treatment, whenever disease progression was suspected (e.g., symptomatic deterioration), and at the time of withdrawal from treatment (if not done in the previous 8 weeks). Responses were assessed using RECIST version 1.1.
# DLT was the primary endpoint of the study, summarized by dose level using the per-protocol analysis set for patients in the dose escalation portion of the study. Efficacy analysis was summarized by dose cohorts for part 2 of the study. For part 1, no formal efficacy analysis was presented. For part 2, tumor response was presented in the form of patient data listings that included, but were not limited to, tumor type, starting dose, tumor response at each visit, and best overall response. In addition, progression date, death date, date of first response, last tumor assessment date, and date of last contact were listed. ORR, PFS, overall survival, TTP, and DoR were summarized and presented as data permitted. For response-based metrics (best overall response, ORR, and DoR), analyses were presented on the basis of confirmed responses. Analyses of PFS and TTP were defined as the time from the date of the first dose. Summaries of the number and percentage of patients with PFS and TTP and data listings by tumor type and dose were generated based on data availability. The 95% confidence intervals (CI) for medians and quartiles were generated based on the Brookmeyer–Crowley method, whereas CIs for the estimated probability of an event at a particular time point were generated using the Greenwood formula. DoR was summarized with the number of responders, the number and percentage of events/censorship, mean, standard deviation, and minimum, maximum, and median duration in units of months. ORR was summarized by the number of patients meeting respective criteria as a percentage. The 95% CIs were generated for PFS, TTP, and ORR based on available data.
# phosphorylated Rb (pRb) = assay: IHC of pRb (H-score) in paired tumor biopsies; assay type: in vivo, human
# Description: as §1
# CDK9 = biological target: CDK9; parameters: method as in PMID 34110834; conditions: cited from earlier work
# CDK4 = biological target: CDK4; parameters: method as in PMID 34110834; conditions: cited from earlier work
# [2] = IR 25 mg twice daily monotherapy, cycle 2 day 1, HR+/HER2− mBC tumor biopsies
# [3] = IR 25 mg twice daily/fulvestrant combination, cycle 2 day 1
# [4] = Part 2A 25 mg twice daily IR + Fulvestrant, n = 45, response-evaluable set
# [5] = Part 2C 25 mg twice daily IR + Fulvestrant, n = 22, response-evaluable set
# [6] = Part 2 total (2A + 2C, + Fulvestrant), N = 67
structure (smiles),measurement,setting,value
C[C@@]1(O)CCC[C@H]1n1c(=O)c(C(F)F)cc2cnc(NC3CCN(S(C)(=O)=O)CC3)nc21 [PF-06873600],Median ctDNA molecular response,ctDNA; EOT,6%
same,Median ctDNA molecular response,ctDNA; cycle 1 day 15,−60%
same,Median change in ctDNA meanVAF,ctDNA; part 2A (28 evaluable),−61%
same,Median change in ctDNA meanVAF,ctDNA; part 2C (14 evaluable),−54%
same,Median percentage change in Ki67-positive cells from baseline,Ki67; [2],–11.7%
same,Median percentage change in Ki67-positive cells from baseline,Ki67; [3],–35.9%
same,Objective response (CR + PR; pts with HR+/HER2− breast cancer with measurable disease at baseline and prior CDK4/6i),[1]; Part 2A 25 mg twice daily IR + Fulvestrant,3 (7.5) n (%)
same,Objective response (pts with HR+/HER2− breast cancer with measurable disease at baseline),"[1]; Part 2A 25 mg twice daily IR + Fulvestrant, 44 such pts",3 (6.8) n (%)
same,"Clinical benefit response (CR, PR, or ≥24 weeks stable disease)",[1]; [4],19 (42.2) n (%)
same,"Confirmed best overall response, CR",[1]; [4],0 n (%)
same,"Confirmed best overall response, NE (not evaluable)",[1]; [4],1 (2.2) n (%)
same,"Confirmed best overall response, Non-CR/non-PD",[1]; [4],0 n (%)
same,"Confirmed best overall response, PR",[1]; [4],3 (6.7) n (%)
same,"Confirmed best overall response, Progressive disease (PD)",[1]; [4],11 (24.4) n (%)
same,"Confirmed best overall response, Stable disease",[1]; [4],30 (66.7) n (%)
same,Disease control (CR + PR + stable disease + non-CR/non-PD),[1]; [4],33 (73.3) n (%)
same,Objective response (CR + PR),[1]; [4],3 (6.7) n (%)
same,Objective response (pts with HR+/HER2− breast cancer with measurable disease at baseline),"[1]; Part 2C 25 mg twice daily IR + Fulvestrant, 20 such pts",5 (25.0) n (%)
same,"Clinical benefit response (CR, PR, or ≥24 weeks stable disease)",[1]; [5],13 (59.1) n (%)
same,"Confirmed best overall response, CR",[1]; [5],0 n (%)
same,"Confirmed best overall response, NE (not evaluable)",[1]; [5],1 (4.5) n (%)
same,"Confirmed best overall response, Non-CR/non-PD",[1]; [5],1 (4.5) n (%)
same,"Confirmed best overall response, PR",[1]; [5],5 (22.7) n (%)
same,"Confirmed best overall response, Progressive disease (PD)",[1]; [5],2 (9.1) n (%)
same,"Confirmed best overall response, Stable disease",[1]; [5],13 (59.1) n (%)
same,Disease control (CR + PR + stable disease + non-CR/non-PD),[1]; [5],19 (86.4) n (%)
same,Objective response (CR + PR),[1]; [5],5 (22.7) n (%)
same,"Clinical benefit response (CR, PR, or ≥24 weeks stable disease)",[1]; [6],32 (47.8) n (%)
same,"Confirmed best overall response, CR",[1]; [6],0 n (%)
same,"Confirmed best overall response, NE (not evaluable)",[1]; [6],2 (3.0) n (%)
same,"Confirmed best overall response, Non-CR/non-PD",[1]; [6],1 (1.5) n (%)
same,"Confirmed best overall response, PR",[1]; [6],8 (11.9) n (%)
same,"Confirmed best overall response, Progressive disease (PD)",[1]; [6],13 (19.4) n (%)
same,"Confirmed best overall response, Stable disease",[1]; [6],43 (64.2) n (%)
same,Disease control (CR + PR + stable disease + non-CR/non-PD),[1]; [6],52 (77.6) n (%)
same,Objective response (CR + PR),[1]; [6],8 (11.9) n (%)
same,Objective response (CR + PR; pts with HR+/HER2− breast cancer with measurable disease at baseline and prior CDK4/6i),[1]; Part 2 total (+ Fulvestrant),3 (7.5) n (%)
same,Objective response (pts with HR+/HER2− breast cancer with measurable disease at baseline),"[1]; Part 2 total (+ Fulvestrant), 64 such pts",8 (12.5) n (%)
same,"Partial responses (PR), patients","[1]; part 1 dose escalation, 78 patients (parts 1A, 1B, 1C)",3.8%
same,Median change in pRb H-score from baseline,phosphorylated Rb (pRb); [2],–16.5%
same,Median percentage change in pRb H-score from baseline,phosphorylated Rb (pRb); [3],–31.9%
same,Ki,CDK9,19.6 nM
same,Ki,CDK4,1.25 nM
